One assay has as its system L1210. The assay is described as follows: Cytotoxicity against mouse L1210 cells. It counts as functional, cell-based.
The test system of assay [1] is Nucleic Acid. The assay is described as follows: Alkylation of cell free 32p end labeled double stranded w794 DNA at 10 uM after 48 hrs by PAGE and autoradiography. It counts as nucleic-acid assay.
Assay [2] has as its system Nucleic Acid. The assay is described as follows: Alkylation of cell free 32p end labeled double stranded w794 DNA at 100 uM after 48 hrs by PAGE and autoradiography. It counts as nucleic-acid assay.

pIC50: −log10 of the molar value. Activity calls are given as the source filed them. The calls are words filed in the database; no cut-off is given here.

In the case of `COC(=O)c1nc2c(O)cc3c(c2o1)C(CCl)CN3C(=O)OC(C)(C)C` (stereo unspecified), the pIC50 in the assay on L1210 was 6.26.
With `COC(=O)c1cc2c([nH]1)C(=O)C=C1N(C(=O)c3cc4cc(OC)c(OC)c(OC)c4[nH]3)C[C@H]3C[C@]123`, the result in the assay with Nucleic Acid [1] was Active. For the same compound, in the assay on Nucleic Acid [2], the outcome was inactive.
Compound `COC(=O)c1nc2c(O)cc3c(c2o1)C(CCl)CN3C(=O)c1cc2cc(OC)c(OC)c(OC)c2[nH]1` (racemic) had a pIC50 in the assay with L1210 of 8.27. In addition, the result with Nucleic Acid [1] was Active. The outcome in the assay with Nucleic Acid [2] was inactive.
